Measured values taken from PubChem BioAssay (NCI).
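How tested: cells in 96-well plates exposed to compound for 48 hours at five concentrations. The concentration for full growth arrest is given as TGI.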

Key:
Test in all cases: NCI tumour cell line growth inhibition, 48 h
[1] = system: OVCAR-5 ovarian
[2] = system: M14 melanoma
[3] = system: MDA-MB-231 breast
[4] = system: KM12 colon
[5] = system: MOLT-4 leukemia
[6] = system: 786-0 renal
[7] = system: A498 renal
[8] = system: SF-295 CNS
[9] = system: HCC-2998 colon
[10] = system: HOP-92 NSCLC
[11] = system: HOP-62 NSCLC
[12] = system: NCI-H522 lung
[13] = system: SF-268 CNS
[14] = system: SW-620 colon
[15] = system: SR leukemia
[16] = system: SNB-19 CNS
[17] = system: SK-MEL-28 melanoma
[18] = system: NCI-H460 lung
[19] = system: BT-549 breast
[20] = system: SNB-75 CNS

Structure (SMILES) | TGI [1] [µM] | TGI [2] [µM] | TGI [3] [µM] | TGI [4] [µM] | TGI [5] [µM] | TGI [6] [µM] | TGI [7] [µM] | TGI [8] [µM] | TGI [9] [µM] | TGI [10] [µM] | TGI [11] [µM] | TGI [12] [µM] | TGI [13] [µM] | TGI [14] [µM] | TGI [15] [µM] | TGI [16] [µM] | TGI [17] [µM] | TGI [18] [µM] | TGI [19] [µM] | TGI [20] [µM]
CCc1cc2c(c3c1CCC3=O)CC1(Cc3ccc(C)cc3C1)C2 (centres undefined) | > 100 | > 100 | > 100 | > 100 | 68.7 | > 100 | > 100 | > 100 | > 100 | 62.8 | > 100 | > 100 |  |  |  |  |  |  |  | 
O=c1ccn2n1Cc1ccccc1C2 | > 100 | > 100 | > 100 | > 100 | > 100 | > 100 | > 100 | > 100 | > 100 | > 100 | > 100 | > 100 | > 100 | > 100 | > 100 | > 100 | > 100 | > 100 |  | 
CN1Cc2cc3cc4c(cc3nc2N(C)C1)OCCO4 | > 100 | > 100 | > 100 | > 100 | > 100 | > 100 | > 100 | > 100 | > 100 | > 100 | > 100 | > 100 | > 100 | > 100 |  | > 100 |  | > 100 | > 100 | > 100
OC1c2ccccc2CC12Cc1ccccc1C2 (centres undefined) | > 100 | > 100 | > 100 | > 100 | > 100 | > 100 | > 100 | > 100 | > 100 | > 100 | > 100 | > 100 | > 100 | > 100 | > 100 | > 100 | > 100 | > 100 |  | > 100
C=CCNC(=O)N(CCCCC(NC(C)=O)C(=O)NCc1ccccc1)Cc1ccccc1 (centres undefined) | > 100 | > 100 |  | > 100 | > 100 | > 100 | > 100 | > 100 |  | > 100 | > 100 | > 100 | > 100 | > 100 |  | > 100 | > 100 | > 100 |  | > 100
O=c1cc(-c2ccccc2)[nH]c2ccc(N3CCOCC3)cc12 | > 100 | > 79.2 | > 100 | 0.446 | > 100 | 38.1 | 73.5 | 0.0773 | > 100 | 44.1 | 28.2 | 0.404 | 15.8 | > 100 |  | > 87.5 | 44.7 | > 100 | > 100 | 
C=CCOc1cc(NC(=S)c2ccoc2C)ccc1OC | > 100 | > 100 | > 100 | > 100 | > 100 | > 100 | > 100 | > 100 | > 100 | > 100 |  | > 100 | > 100 | > 100 |  | > 100 | > 100 | > 100 | > 100 | > 100
